1 compound from patent EP2241555A1, “New RAC1 inhibitors as potential pharmacological agents for heart failure treatment” (UNIVERSITA' DEGLI STUDI DI MILANO, priority 2009, dated 2010) can be followed below.

Molecules are shown by their SMILES.

In one data set the target is T1, Rac1 (Homo sapiens, UniProt P63000).
T1 construct: endogenous in cells; host or cells: human cultured smooth muscle cells, stimulated with PDGF-BB
The data set is described as follows: G-LISA assay of intracellular Rac1-GTP in PDGF-BB stimulated human smooth muscle cells. It counts as cell-based. The following applies: G-LISA, 50 µM; statement in words. From the text: The intracellular amount of Rac1-GTP has been determined using the GLISA™ assay (Cytoskeleton, Inc). The GLISA™ assay uses a 96-well plate coated with RBD domain of Rac1-family effector protein PAK1. […] A significant inhibition on Rac1 activity should decrease the intracellular levels of Rac1-GTP and therefore reduce the percentage of Rac1-GTP detected compared to control untreated cells.

In a further data set the test system is HL-1 cells. The data set is described as follows: Apoptosis of ischemic HL-1 cardiomyocytes (TUNEL assay, flow cytometer). The conditions noted are these: 100 µM; 8 h ischemia (glucose deficient medium + hydrogen peroxide); 8h Ischemia alone 701.6, 8h Control 100. It counts as cell-based, mouse. On the procedure: To establish a cardiomyocytes based apoptosis assay, which mimics the post-ischemic damage observed after myocardial infarction, we have utilized a cardiac muscle cell line, HL-1 cells, derived from the AT-1 mouse atrial cardiomyocyte tumor lineage. The HL-1 cells were incubated in glucose deficient medium in the presence of hydrogen peroxide and either in presence or absence of compounds of the invention Apoptosis rate of ischemic HL-1 cells was normalised to the apoptosis rate of the 8h control cells under non-ischemic conditions, thus incubated with normal concentration of glucose in the absence of hydrogen peroxide. Both non-ischemic and ischemic HL-1 cultures were harvested after 8 hours. […] The apoptotic rates were then evaluated by TUNEL assay, a method for detecting DNA strand breaks in apoptotic cells by flow cytometer The solvent of the compounds, i.e DMSO, has no influence on the apoptosis rate. […] Effect of newly synthesized compounds with Rac1 inhibitory activity on apoptosis rate in HL-1 cells normalized to control (TUNEL-assay) The data are representative of two experiments.
Background: In flow cytometry, cells or beads pass a laser one at a time.

The subject of a further data set is HepG2 cells. The data set is described as follows: Resazurine cytotoxicity assay (metabolic activity), HepG2. The data set is classed as cell-based, human. The procedure:
(§1) For a pre-screening of the compounds they were first tested in human hepatocellular carcinoma cells (HepG2 cells)for 24 h and to gain further information about the cytotoxic potential more specific target tissues like the mouse cardiomyocytes HL-1 and primary rat cardiomyocytes were used additionally. […] The toxicity classification has been determined by using drugs currently utilized in clinic with known toxicity profile

The subject of another data set is HL-1. As to the kind of experiment: Resazurine cytotoxicity assay (metabolic activity), HL-1. The data set is classed as cell-based, mouse. The procedure: as §1
Data set [1] has as its system primary rat cardiomyocytes. The data set is described as follows: Resazurine cytotoxicity assay (metabolic activity), primary rat cardiomyocytes. The data set is classed as cell-based. The procedure: as §1
In general terms: Alamar Blue is a resazurin reagent that responds to reducing activity.

The nature of data set [2]: PAMPA (Parallel Artificial Membrane Permeability Assay). The following applies: start concentration 250 µM, diffusion period 16 h. It counts as in vitro ADME. In general terms: PAMPA measures passive passage across an artificial lipid membrane.
Data set [3] is described as follows: Caco2 monolayer permeation. The data set is classed as in vitro ADME, human. The following applies: human, Caco-2; Caco2 monolayers, 90 min, start concentration 50 µM.
The subject of the next data set is Caco2. As to the kind of experiment: Caco2 monolayer permeation. It counts as in vitro ADME, human. The following applies: Caco2 monolayers, 90 min, start concentration 50 µM.
A short description of data set [4]: Metabolic stability and metabolite identification in liver homogenates with cofactors (LC/MS). The conditions noted are these: liver homogenate with cofactors, 10 µM substrate, 60 min.
Experimental: The basic incubation mixture with total volume of 500 µl consisted of the following components. 100 µl liver homogenate, compound in DMSO (dimethyl sulfoxide) and 1 mM NADPH (reduced nicotinamide adenine dinucleotide phosphate), 1 mM UDPGA (uridine 5'-diphosphoglucuronic acid), 1 mM PAPS (3'-phosphoadenosine-5'-phosphosulfate) and 1 mM GSH (glutathione). The substrate concentration used was 10 µM. Two parallel incubations, one with cofactors and one without, were made. Final DMSO concentration in the incubation was 1 µM. […] Reaction was started by addition of a cofactor mixture and stopped by adding 250 µl of ice-cold acetonitrile.

In general, EC50 refers to the concentration that produces a half-maximal response. For orientation: Papp means the rate of passage across a membrane or cell layer, normalised by area and donor concentration.

As to `CCN(CC)CCCC(C)Nc1nccc(Nc2cnc3ccccc3c2)n1` (stereo not shown) [CWB022/02052, N2-(4-Diethylamino-1-methyl-butyl)-N4-quinolin-3-yl-pyrimidine-2.4-diamine], the “inhibitory action on Rac1 activity” value at Rac1 is on record as “significant end efficient inhibitory action”. In the data set on HL-1 cells, the “Relative rate of apoptosis normalised to control [%]” value came out at 607.8%. In addition, the “MVC” value in the data set with HepG2 cells (HepG2, 24 h, maximal viability concentration) is reported as 7.8 µM; in the data set on HL-1 (HL-1, 24 h, maximal viability concentration) it was 31.2 µM; in [1] (24 h, maximal viability concentration) it was 7.8 µM. Moreover, the Cytotoxicity-Classification entry in the data set on HepG2 cells (HepG2, 24 h exposure) is on record as “++ (10 µM < EC50 ≤ 100 µM, medium (++))”; in the data set with HL-1 (HL-1, 24 h exposure) it was “++ (10 µM < EC50 ≤ 100 µM, medium (++))”; in data set [1] (24 h exposure), “++ (10 µM < EC50 ≤ 100 µM, medium (++))”. For the same compound, the EC50 was determined as 32 µM with HepG2 cells (Homo sapiens, HepG2, 24 h, metabolic activity, read-out: EC50); 60 µM with HL-1 (Mus musculus, HL-1, 24 h, metabolic activity); 15 µM in data set [1] (Cardiomyocyte, 24 h, metabolic activity). Also, the PAMPA classification entry in data set [2] is on record as “medium (medium (20%≤ flux ≤70%))”. Besides, the “PAMPA flux [%] ± SD” value in data set [2] is 34±4%. The Papp at 1.5 h, 50 µM in data set [3] was determined as 8.9 ± 2.7 ×10⁻⁶ cm/s. Also, in the data set with Caco2, the “Caco2 Classification” value is “medium (compounds with Papp between 1 and 10 are moderately absorbed (20 - 70%))”. Further, in [4], the “remaining LC/MS peak area (relative to 0 min incubation samples, %)” value was determined as 5%.
